Reference: patent US9127044B2, “Cyclic depsipeptides” (NOVARTIS AG, priority 2007, dated 2015)

Assays:
[1] = tested on: Swine Model of Allergic Contact Dermatitis (ACD); experiment: Anti-inflammatory activity in swine model of allergic contact dermatitis (ACD), DNFB; format: in vivo
Description: Eight days before the elicitation of the ACD, […] of 10% 2,4-dinitrofluorobenzene (DNFB, dissolved in DMSO/acetone/olive oil [1/5/3, v/v/v]) were applied epicutaneously in divided volumes onto the basis of both ears and onto both groins (100 μl/site) for sensitization. The challenge reactions were elicited with 15 μl of DNFB (1.0%) on contralateral test sites (each 7 cm^2 in size) of the shaved dorsolateral back. For treatment, the test compound and the placebo (solvent only) were applied contralaterally to 2 test sites in each animal 0.5 and 6 hrs after the challenge. The test sites were clinically examined 24 hrs after the challenge when inflammation peaked. The changes were scored on a scale from 0 to 4 (Table 15), allowing a combined maximal score of 12 per designated site. Skin reddening was measured reflectometrically using a* values.

human kallikrein 7 = human kallikrein 7 (Homo sapiens, UniProt P49862); experiment: Kallikrein-7 inhibitory activity in vitro (fluorescence-quenched substrate); format: biochemical
human kallikrein 7, sequence (P49862 30-253): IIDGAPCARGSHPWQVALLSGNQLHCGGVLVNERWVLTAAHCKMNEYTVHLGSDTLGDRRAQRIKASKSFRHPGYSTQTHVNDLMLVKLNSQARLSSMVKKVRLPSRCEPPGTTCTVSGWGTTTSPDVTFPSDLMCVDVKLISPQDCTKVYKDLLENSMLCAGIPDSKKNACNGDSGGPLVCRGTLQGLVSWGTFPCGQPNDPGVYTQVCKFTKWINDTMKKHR

Compound: CCC(C)[C@@H]1NC(=O)[C@H](Cc2ccc(O)cc2)N(C)C(=O)[C@H](C(C)CC)N2C(=O)C(CC[C@@H]2O)NC(=O)[C@H](CC(C)C)NC(=O)[C@@H](NC(=O)[C@H](CCC(N)=O)NC(=O)C(C)C)[C@@H](C)OC1=O (some centres unmarked) [formula II]
- A* value (Mean), skin reddening measured reflectometrically ([1]; 1% solution applied 0.5 and 6 hrs after challenge, 24 hrs, n: 8 test sites): 8.6
- Clinical score (Mean) ([1]; 1% solution applied 0.5 and 6 hrs after challenge, scored at 24 hrs, maximal score 12, n: 8 test sites): 5.1
- Inhibition vs placebo-treated sites, A* value ([1]; Table 16, 1% test compound): 27.0
- Inhibition vs placebo-treated sites, clinical score ([1]; Table 16, 1% test compound): 29.9
- inhibition of clinical inflammatory changes ([1]; treated twice with 1% solution, p<0.01): 30%
- inhibition of measured skin redness ([1]; treated twice with 1% solution, p<0.05): 27%
- IC50 (human kallikrein 7; hKallikrein7 IC50, Table 10): 1 nM
- IC50 (human kallikrein 7; hKallikrein7 IC 50, Table 11): 1 nM
